Data from patent US20250179429A1, “CELL CULTURE MEDIUM” (Auckland UniServices Limited, priority 2017, published 2025).
Entries after “also recorded” stand apart in the source; their conditions may differ. Counter-ions that a name gives are not always drawn. Like-named read-outs stand apart in the source and are kept apart here.

Key:
[1] = tested on: Human primary keratinocytes; assay: Keratinocyte growth in culture media: rhodamine B staining, confluency measured with Operetta plate reader; format: cell-based; conditions: for effect of ROCK inhibitor on keratinocyte growth, FIG. 3: Y27632 10 μm vs SB772077B 400 nM in Base, Kelch's or Green's medium, 3 donors; for effect of Y27632 on keratinocyte growth, FIG. 5: 8 days
epidermal cells = assay: Greens, Cellntech, S7, EDGS medium comparison (rhodamine B, confluency score 0 to 4); format: cell-based; conditions: added to Green's medium with MEFs and commercial keratinocyte growth media
Method: Epidermal cells were grown in Greens medium with MEFs, CnT Prime, Epilife medium supplemented with S7 or EDGS. All media were tested with and without ROCK inhibitor Y27632. 550,000 epidermal cells were grown in each medium until one sample reached 80% confluence, at this point all samples were fixed and stained for rhodamine B. Sample confluency was then assigned a score between 0 and 4, 0 having no cells, and 4 having maximum confluency. N=2.
Flasks were pre-coated with a coating matrix for S7 and EDGS supplemented Epilife medium samples. 1.7 ml of dilution buffer was added to each T25 flask. Then 17 μl of coating matrix was added. The mixture was incubated at room temperature for 30 minutes. Next, the dilution buffer and coating matrix mix were removed from the flasks before adding cells and media.
550,000 epidermal cells and 5 ml of each required medium was added, with or without 10 μl Y27632, to a T25 flask. The flask was incubated at 37° C. with 5% CO2 until one sample reached 80% confluency.
Next, the medium was removed from the flasks and the cells fixed with 4% formaldehyde for 30 minutes. 1% rhodamine B solution was added and the cells incubated at room temperature for 10 minutes. The rhodamine B solution was removed and the cells thoroughly rinsed with water. Finally, all liquid from the flasks was removed using a pipette. The cells were imaged and confluency was calculated.

[2] = Green's media + Y27632, MEFs not present

choleratoxin
effect on keratinocyte growth of leaving one component out of Green's media, FIG. 1 [1]: important components of Green's medium in generating keratinocyte proliferation; also recorded: negatively affect keratinocyte growth; also recorded: one of the most important single ingredients of Green's media

Nc1ncnc2nc[nH]c12 [adenine]
effect on keratinocyte growth of leaving one component out of Green's media, FIG. 1 [1, 2]: appears to enhance growth of keratinocytes

CCn1c(-c2nonc2N)nc2cncc(C(=O)N3CC[C@H](N)C3)c21 [SB772077B, (3S)-1-[[2-(4-Amino-1,2,5-oxadiazol-3-yl)-1-ethyl-1H-imidazo[4,5-c]pyridin-7-yl]carbonyl]-3-pyrrolidinamine dihydrochloride, reference compound]
ROCK inhibitor concentration to achieve the same effect (enhancing keratinocyte growth rates) ([1]; SB 772077B vs Y27632): ~400 nm | effect of ROCK inhibitor on keratinocyte growth, FIG. 3 ([1]; dihydrochloride): comparable effects on keratinocyte growth; also recorded: can be used as substitute for Y27632 for keratinocyte growth

C[C@@H](N)[C@H]1CC[C@H](C(=O)Nc2ccncc2)CC1 [Y27632, reference compound]
effect of Y27632 on keratinocyte growth, FIG. 6 (epidermal cells): may also enhance growth of keratinocytes in other keratinocyte growth media; also recorded: enhanced keratinocyte growth in Green's medium, S7 medium and CnT Prime medium | effect of ROCK inhibitor on keratinocyte growth, FIG. 3 [1]: comparable effects on keratinocyte growth | ROCK inhibitor concentration to achieve the same effect (enhancing keratinocyte growth rates) ([1]; Y27632 vs SB 772077B): 10 μm | effect of Y27632 on keratinocyte growth, FIG. 5 ([1]; added to Green's medium with MEFs): can enhance growth of keratinocytes | effect of Y27632 on keratinocyte growth, FIG. 5 ([1]; added to serum-free Optipeak media): enhanced growth of keratinocytes; also recorded: a few colonies started to develop

EGF: epidermal growth factor, component of Green's medium at 10 ng/ml (NSDSECPLSHDGYCLHDGVCMYIEALDKYACNCVVGYIGERCQYRDLKWWELR; Epidermal growth factor; UniProt P01133 971-1023, looked up)
effect on keratinocyte growth of leaving one component out of Green's media, FIG. 1 [1, 2]: important components of Green's medium in generating keratinocyte proliferation; also recorded: negatively affect keratinocyte growth | effect of EGF on keratinocyte growth (later finding) ([1]; data not shown): not enhancing keratinocyte growth
